From article PMC3046873 (ACS medicinal chemistry letters, 2011)

Experiments:
[1] = background statement, no reference given, cited from earlier work
[2] = tested on: Plasmodium falciparum; details: cited from earlier work
[3] = tested on: Plasmodium falciparum; experiment: Activity against the malaria parasite Plasmodium falciparum; details: fold versus 1

Row | SMILES | oral availability [1] | half-life in plasma ([1]; plasma) | EC50 [2] [nM] | increased activity against Plasmodium falciparum relative to 1 [3] [×]
1 | O=CN(O)CCCP(=O)(O)O [Compound 1, Fosmidomycin] | poor | ~ 1 h |  | 
2 | O=CN(O)CCC(c1ccc(Cl)c(Cl)c1)P(=O)(O)O (stereo not shown) [Compound 8] |  |  | 90 | > 10
